# Experimental data published in US10208033B2, “β-carboline, dihydro-β-carboline and tetrahydro-β-carboline alkaloid derivatives and preparation methods same and use in aspects of preventing and treating plant viruses, fungicides and insecticides” (NANKAI UNIVERSITY, priority 2013, dated 2019).
# Where two headings read alike, the source gives them in different places.
# Tests used:
# Cercospora arachidicola = assay: Fungicidal (bactericidal) activity in vitro, PDA colony diameter; assay type: cell-based; conditions: 50 mg/kg; for inhibition of growth at 50 mg/kg: Mycosphaerella arachidis, 96 h
# Fusarium graminearumt = assay: microbe, parasite or virus in culture; assay type: cell-based; conditions: for inhibition of growth at 50 mg/kg: Fusarium, 96 h, read-out: Bactericidal activity (%) Fusarium graminearumt; for Bactericidal activity (%) Fusarium graminearumt: 50 mg/kg
# potato late blight = assay: microbe, parasite or virus in culture; assay type: cell-based; conditions: for inhibition of growth at 50 mg/kg: Phytophthora infestans, 96 h, read-out: Bactericidal activity (%) potato late blight
# cucumber fusarium wilt = assay: Fungicidal (bactericidal) activity in vitro, PDA colony diameter; assay type: cell-based; conditions: 50 mg/kg; for inhibition of growth at 50 mg/kg: Fusarium, 96 h
# Rhizoctonia cereali = assay: as above; assay type: cell-based; conditions: 50 mg/kg; for inhibition of growth at 50 mg/kg: Rhizoctonia, 96 h
# [1] = tested on: Colletotrichum orbiculare; assay: as above; assay type: cell-based; conditions: 50 mg/kg; for inhibition of growth at 50 mg/kg: Colletotrichum orbiculare, 96 h
# Macrophoma kawatsukai = assay: as above; assay type: cell-based; conditions: 50 mg/kg
# Sclerotinia scleotiorum = assay: as above; assay type: cell-based; conditions: 50 mg/kg; for inhibition of growth at 50 mg/kg: Sclerotinia, 96 h
# Botrytis cinerea = assay: as above; assay type: cell-based; conditions: for inhibition of growth at 50 mg/kg: Botrytis cinerea, 96 h
# Bipolaria maydis = assay: organism not typed; assay type: cell-based; conditions: for inhibition at 50 mg/kg: read-out: Bactericidal activity (%) Bipolaria maydis; for Bactericidal activity (%) Bipolaria maydis: 50 mg/kg
# Phytophthora capsici = assay: Fungicidal (bactericidal) activity in vitro, PDA colony diameter; assay type: cell-based; conditions: 50 mg/kg; for inhibition of growth at 50 mg/kg: Phytophthora capsici, 96 h
# Rhizoctonia solani = assay: as above; assay type: cell-based; conditions: 50 mg/kg; for inhibition of growth at 50 mg/kg: Rhizoctonia solani, 96 h
# Alternaria solani = assay: as above; assay type: cell-based; conditions: 50 mg/kg; for inhibition of growth at 50 mg/kg: Alternaria solani, 96 h
# Fusarium fujikuroi = assay: as above; assay type: cell-based; conditions: 50 mg/kg; for inhibition of growth at 50 mg/kg: Fusarium fujikuroi, 96 h
# [2] = tested on: tobacco mosaic virus (TMV); assay: Anti-TMV in vivo inactivation; design: species or system tobacco mosaic virus (host Nicotiana tabacum L.cv.Xanthi NN)
# mosquito larvae = assay: whole plant or invertebrate; conditions: 24 h
# Description: Experimental method of mosquito larvae: culex pipiens pallens, a normal colony raised indoors. Weigh about 5 mg of the compound for test, put it in a penicillin vial, add 5 mL of acetone (or an appropriate solvent), and shake and dissolve it to obtain a 1000 ppm mother solution. Pipette 0.5 mL of the mother solution, add it to a 100 mL beaker filled with 89.9 mL of water, select 10 mosquito larvae at the beginning of the fourth instar, and pour them to a beaker together with 10 mL of feeding solution. The concentration of the drug solution is 5 ppm. […] Use an aqueous solution containing 0.5 mL of test solvent as a blank.
# [3] = tested on: tobacco mosaic virus (TMV); assay: Anti-TMV in vivo therapeutic effect; design: species or system tobacco mosaic virus (host Nicotiana tabacum L.cv.Xanthi NN)
# [4] = tested on: tobacco mosaic virus (TMV); assay: Anti-TMV in vitro effect (half-leaf soaking); assay type: cell-based, tobacco mosaic virus (host Nicotiana tabacum L.cv.Xanthi NN)
# [5] = tested on: tobacco mosaic virus (TMV); assay: Anti-TMV in vivo protective effect; design: species or system tobacco mosaic virus (host Nicotiana tabacum L.cv.Xanthi NN)
# armyworms = assay type: in vivo; conditions: concentration 600 mg/kg
# cotton bollworms = assay: whole plant or invertebrate
# Description: Experimental method of cotton bollworms: feed and drug mixing method: measure 3 mL of prepared solution and add it to about 27 g of newly prepared feed, thereby obtaining needed concentration through dilution by 10 times.
smiles,measurement,setting,value
COC(=O)Nc1nc2ccccc2[nH]1 [Carbendazim],inhibition of growth at 50 mg/kg,Cercospora arachidicola,< 50%
same,inhibition of growth at 50 mg/kg,Fusarium graminearumt,100%
same,inhibition of growth at 50 mg/kg,potato late blight,100%
same,inhibition of growth at 50 mg/kg,cucumber fusarium wilt,< 50%
same,inhibition of growth at 50 mg/kg,Rhizoctonia cereali,100%
same,inhibition of growth at 50 mg/kg,[1],100%
same,inhibition at 50 mg/kg,Macrophoma kawatsukai,< 50%
same,inhibition of growth at 50 mg/kg,Sclerotinia scleotiorum,100%
same,inhibition of growth at 50 mg/kg,Botrytis cinerea; 50 mg/kg,< 50%
same,inhibition at 50 mg/kg,Bipolaria maydis,100%
same,inhibition of growth at 50 mg/kg,Phytophthora capsici,< 50%
same,inhibition of growth at 50 mg/kg,Rhizoctonia solani,100%
same,inhibition of growth at 50 mg/kg,Alternaria solani,< 50%
same,inhibition of growth at 50 mg/kg,Fusarium fujikuroi,< 50%
N#Cc1c(Cl)c(Cl)c(Cl)c(C#N)c1Cl [Chlorothalonil],inhibition of growth at 50 mg/kg,Cercospora arachidicola,73.3%
same,inhibition of growth at 50 mg/kg,Fusarium graminearumt,< 50%
same,inhibition of growth at 50 mg/kg,potato late blight,86.4%
same,inhibition of growth at 50 mg/kg,cucumber fusarium wilt,100%
same,inhibition of growth at 50 mg/kg,Rhizoctonia cereali,100%
same,inhibition of growth at 50 mg/kg,[1],91.3%
same,inhibition at 50 mg/kg,Macrophoma kawatsukai,100%
same,inhibition of growth at 50 mg/kg,Sclerotinia scleotiorum,< 50%
same,inhibition of growth at 50 mg/kg,Botrytis cinerea; 50 mg/kg,100%
same,inhibition at 50 mg/kg,Bipolaria maydis,91.3%
same,inhibition of growth at 50 mg/kg,Phytophthora capsici,100%
same,inhibition of growth at 50 mg/kg,Rhizoctonia solani,100%
same,inhibition of growth at 50 mg/kg,Alternaria solani,73.3%
same,inhibition of growth at 50 mg/kg,Fusarium fujikuroi,100%
"Cc1nccc2c1[nH]c1cc(OC(=O)N(C)C)ccc12 [Ia-6, dimethylcarbamate (1-methylpyridino [3,4-b]indol-7)-ester]",Bactericidal activity (%) Cercospora arachidicola,Cercospora arachidicola,53.9%
same,Bactericidal activity (%) Fusarium graminearumt,Fusarium graminearumt,38.1%
same,Bactericidal activity (%) potato late blight,potato late blight,9.1%
same,Corn borer Mortality (%),corn borers; concentration 600 mg/kg,35%
same,Bactericidal activity (%) Cucumber fusarium wilt,cucumber fusarium wilt,23.1%
same,Bactericidal activity (%) Rhizoctonia cereali,Rhizoctonia cereali,36.8%
same,Bactericidal activity (%) Colletotrichum orbiculare,[1],35.7%
same,Bactericidal activity (%) Macrophoma kawatsukai,Macrophoma kawatsukai,26.2%
same,Bactericidal activity (%) Sclerotinia scleotiorum,Sclerotinia scleotiorum,7.8%
same,Bactericidal activity (%) Botrytis cinerea,Botrytis cinerea; 50 mg/kg,12.1%
same,Relative inhibition rate (%) In vivo inactivation,[2]; treatment dose 100 μg/mL,0%
same,Relative inhibition rate (%) In vivo inactivation,[2]; treatment dose 500 μg/mL,12%
same,Mosquito larvae Mortality (%),mosquito larvae; concentration 5 mg/kg,20%
same,Mosquito larvae Mortality (%),mosquito larvae; concentration 10 mg/kg,100%
same,Bactericidal activity (%) Bipolaria maydis,Bipolaria maydis,27.3%
same,Relative inhibition rate (%) In vivo therapy,[3]; treatment dose 100 μg/mL,0%
same,Relative inhibition rate (%) In vivo therapy,[3]; treatment dose 500 μg/mL,15.6%
same,Bactericidal activity (%) Phytophthora capsici,Phytophthora capsici,9.4%
same,Bactericidal activity (%) Rhizoctonia solani,Rhizoctonia solani,46.1%
same,Relative inhibition rate (%) In vitro activity,[4]; treatment dose 100 μg/mL,0%
same,Relative inhibition rate (%) In vitro activity,[4]; treatment dose 500 μg/mL,12.6%
same,Relative inhibition rate (%) In vivo protection,[5]; treatment dose 100 μg/mL,0%
same,Relative inhibition rate (%) In vivo protection,[5]; treatment dose 500 μg/mL,18.7%
same,Bactericidal activity (%) Alternaria solani,Alternaria solani,15.8%
same,Armyworm Mortality (%),armyworms,45%
same,Cotton bollworm Mortality (%),cotton bollworms; concentration 600 mg/kg,20%
same,Bactericidal activity (%) Fusarium fujikuroi,Fusarium fujikuroi,21.4%
"O=C(O)[C@@H]1Cc2c([nH]c3ccccc23)[C@H](c2cccnc2)N1 [Ib-6, (1S, 3S)-1-(pyridine-3)-2,3,4,9-tetrahydropyridino [3,4-b] indol-3-formic acid]",Bactericidal activity (%) Cercospora arachidicola,Cercospora arachidicola,84.6%
same,Bactericidal activity (%) Fusarium graminearumt,Fusarium graminearumt,31.0%
same,Bactericidal activity (%) potato late blight,potato late blight,27.3%
same,Corn borer Mortality (%),corn borers; in vivo,40%
same,Bactericidal activity (%) Cucumber fusarium wilt,cucumber fusarium wilt,26.9%
same,Bactericidal activity (%) Rhizoctonia cereali,Rhizoctonia cereali,63.2%
same,Bactericidal activity (%) Colletotrichum orbiculare,[1],32.1%
same,Bactericidal activity (%) Macrophoma kawatsukai,Macrophoma kawatsukai,61.9%
same,Bactericidal activity (%) Sclerotinia scleotiorum,Sclerotinia scleotiorum,29.4%
same,Bactericidal activity (%) Botrytis cinerea,Botrytis cinerea,27.3%
same,Relative inhibition rate (%) In vivo inactivation,[2]; treatment dose 100 μg/mL,0%
same,Relative inhibition rate (%) In vivo inactivation,[2]; treatment dose 500 μg/mL,17.5%
same,Bactericidal activity (%) Bipolaria maydis,Bipolaria maydis,36.4%
same,Relative inhibition rate (%) In vivo therapy,[3]; treatment dose 100 μg/mL,0%
same,Relative inhibition rate (%) In vivo therapy,[3]; treatment dose 500 μg/mL,21.4%
same,Bactericidal activity (%) Phytophthora capsici,Phytophthora capsici,9.4%
same,Bactericidal activity (%) Rhizoctonia solani,Rhizoctonia solani,32.9%
same,Relative inhibition rate (%) In vitro activity,[4]; treatment dose 100 μg/mL,0%
same,Relative inhibition rate (%) In vitro activity,[4]; treatment dose 500 μg/mL,25%
same,Relative inhibition rate (%) In vivo protection,[5]; treatment dose 100 μg/mL,0%
same,Relative inhibition rate (%) In vivo protection,[5]; treatment dose 500 μg/mL,24.8%
same,Bactericidal activity (%) Alternaria solani,Alternaria solani,26.3%
same,Armyworm Mortality (%),armyworms,45%
same,Cotton bollworm Mortality (%),cotton bollworms; in vivo,20%
same,Bactericidal activity (%) Fusarium fujikuroi,Fusarium fujikuroi,14.3%
